Reference: patent publication US11518760B2 (Liverpool School of Tropical Medicine, priority 2017, dated 2022)

Tested on: C6/36 Aedes albopictus cell line infected with Wolbachia pipientis (Wolbachia strain wAlbB)
Experiment: In vitro insect cell line assay (anti-Wolbachia screen, SYTO 11 high content imaging)
Format: cell-based
Conditions: 168 h; C6/36 Aedes albopictus cells infected with Wolbachia pipientis wAlbB, 7 days incubation, SYTO 11 imaging; read-out: In vitro anti-Wolbachia activity
Outline: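 SYTO 11 staining (15 min), high-content imaging and texture analysis were the read-out on day 7. Before that, C6/36 mosquito cells carrying Wolbachia strain wAlbB were incubated at 26 °C with test compound at 5 μM final, alongside DMSO-only control wells.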

Structure (SMILES) | EC50
CC(C)Nc1nc(NCc2ccccc2Cl)c2ccccc2n1 [Example 137, N^4-(2-chlorobenzyl)-N^2-isopropylquinazoline-2,4-diamine] | 1000 to 100000 nM
CC1COCCN1Cc1nc(NCc2ccccc2C(F)(F)F)c2cccnc2n1 (centres unmarked) [Example 224] | 1000 to 100000 nM
Cc1nc(NCc2ccc(F)cc2C(F)(F)F)c2ccccc2n1 [Example 73, N-(4-fluoro-2-(trifluoromethyl)benzyl)-2-methylquinazolin-4-amine] | 100 to 1000 nM
FC(F)(F)c1ccccc1CNc1nc(N2CC3CC(C2)O3)nc2ncccc12 [Example 300, 2-(6-oxa-3-azabicyelo[3.1.1]heptan-3-yl)-N-(2-(trifluoromethyl)benzyl)pyrido[2,3-d]pyrimidin-4-amine] | < 0.01 nM
CC1COCCN1c1nc(NCc2cccnc2C(F)(F)F)c2cncnc2n1 (centres unmarked) [Example 306, 2-(3-methylmorpholino)-N-((2-(trifluoromethyl)pyridin-3-yl)methyl)pyrimido[4,5-d]pyrimidin-4-amine] | 1000 to 100000 nM
CC(C)(C)N(Cc1ccccc1C(F)(F)F)c1ncnc2ccsc12 [Example 85] | 100 to 1000 nM
NC(=O)c1nc(NCc2ccccc2C(F)(F)F)c2sccc2n1 [Example 155, 4-((2-(trifluoromethyl)benzyl)amino)thieno[3,2-d]pyrimidine-2-carboxamide] | 1000 to 100000 nM
COc1cccc(CNc2nc(NC(C)C)nc3ccsc23)c1F [Example 26, N^4-(2-fluoro-3-methoxybenzyl)-N^2-isopropylthieno[3,2-d]pyrimidine-2,4-diamine] | 100 to 1000 nM
CC(C)N(C)c1nc(N2CCOCC2c2ccccc2C(F)(F)F)c2cccnc2n1 (centres unmarked) [Example 188, N-isopropyl-N-methyl-4-(3-(2-(trifluoromethyl)phenyl)morpholino)pyrido[2,3-d]pyrimidin-2-amine] | 1000 to 100000 nM
FC(F)(F)c1ncccc1CNc1nc(N2CCOC3CC32)nc2ncccc12 (centres unmarked) [Example 294, 2-(2-oxa-5-azabicyclo[4.1.0]heptan-5-yl)-N-((2-(trifluoromethyl)pyridin-3-yl)methyl)pyrido[2,3-d]pyrimidin-4-amine] | 0.01 to 1 nM
FC(F)C1CN(c2nc(NCc3cccnc3C(F)(F)F)c3cccnc3n2)CCO1 (centres unmarked) [Example 282, 2-(2-(difluoromethyl)morpholino)-N-((2-(trifluoromethyl)pyridin-3-yl)methyl)pyrido[2,3-d]pyrimidin-4-amine] | 0.01 to 1 nM
Cc1nc(N(C)C(C)c2ccccc2C(F)(F)F)c2sc(C)cc2n1 (centres unmarked) [Example 69, N,2,6-trimethyl-N-(1-(2-(trifluoromethyl)phenyl)ethyl)thieno[3,2-d]pyrimidin-4-amine] | 1000 to 100000 nM
COc1ccc(CNc2nc(NC(C)C)nc3ccsc23)cc1OC [Example 133, N^4-(3,4-dimethoxybenzyl)-N^2-isopropylthieno[3,2-d]pyrimidine-2,4-diamine] | 1000 to 100000 nM
FC(F)(F)c1ccccc1CNc1nc(N2CC3CC2CO3)nc2ncccc12 (centres unmarked) [Example 267, 2-(2-oxa-5-azabicyclo[2.2.1]heptan-5-yl)-N-(2-(trifluoromethyl)benzyl)pyrido[2,3-d]pyrimidin-4-amine] | < 0.01 nM
CC(C)Nc1nc(NCc2cccc(F)c2)c2sccc2n1 [Example 14, N^4-(3-fluorobenzyl)-N^2-isopropylthieno[3,2-d]pyrimidine-2,4-diamine] | 100 to 1000 nM
CC1COCCN1Cc1nc(NCc2cccnc2C(F)(F)F)c2cccnc2n1 (centres unmarked) [Example 229, 2-((3-methylmorpholino)methyl)-N-((2-(trifluoromethyl)pyridin-3-yl)methyl)pyrido[2,3-d]pyrimidin-4-amine] | 1000 to 100000 nM
CN1CC(Nc2nc(NCc3cccnc3C(F)(F)F)c3cccnc3n2)C1 [Example 148, N^2-(1-methylazetidin-3-yl)-N^4-((2-(trifluoromethyl)pyridin-3-yl)methyl)pyrido[2,3-d]pyrimidine-2,4-diamine] | 1000 to 100000 nM
